Earlier results, collected in patent publication US20060035976A1, “Methods of preventing headaches with norepinephrine precursors” (priority 2002, published 2006).

Experiments:
[1] = test system: microvessel preparations
[2] = test system: migraine attacks; details: 100 mg/day; person with Parkinson's disease, concurrently on L-DOPA, benserazide and amantadine
[3] = test system: pain; details: 100 mg; including a patient experiencing a cluster headache

| Structure (SMILES) | specific uptake of DOPS [1] | time that increased plasma levels of DOPS and NE remain (after oral administration of DOPS) | time of peak NE levels (after oral ingestion of DOPS) | time of peak plasma levels of DOPS (after oral ingestion of DOPS) | migraine attacks (patient report) [2] | analgesic effects [3] |
| --- | --- | --- | --- | --- | --- | --- |
| N[C@H](C(=O)O)[C@H](O)c1ccc(O)c(O)c1 [DOPS, Threo-3-(3,4-dihydroxyphenyl)serine] | Specific uptake of DOPS has also been demonstrated | at least 12 hours | 5 h | 3 h |  |  |
| N[C@H](C(=O)O)[C@H](O)c1ccc(O)c(O)c1 [L-DOPS] |  |  |  |  | migraine attacks were resolved | alleged analgesic effects |
